Reference: article PMC11747885, “Potent inhibitors of the human RNA ligase Rlig1 highlights its role in RNA integrity maintenance under oxidative cellular stress” (Chemical Science, 2025)
Where “and” joins values, the source holds several entries; their conditions need not be identical. Equal values may be shown once. Read-outs that look alike come from different tables or passages of the source.

Assays:
FLT-3 = system: FLT-3; design: method as in MedChemExpress; conditions: ref MedChemExpress; cited from earlier work
Aurora A = system: Aurora A; design: method as in MedChemExpress; conditions: ref MedChemExpress; cited from earlier work
KDR = system: KDR; design: method as in MedChemExpress; conditions: ref MedChemExpress; cited from earlier work
Rlig1-AMP = target: T1, Rlig1-AMP (Homo sapiens, UniProt Q8N999); assay: FRET-based high-throughput screening of inhibitors for Rlig1-AMP; format: biochemical; conditions: HTS hits; for Raw data [w Enyzm]: with enzyme; for Raw data [w/o Enzym]: without enzyme
T1 construct: made in house; host or cells: E. coli BL21 (DE3), pET15b-Rlig1

Aurora B = system: Aurora B; design: method as in MedChemExpress; conditions: ref MedChemExpress; cited from earlier work
[1] = system: other members of the PLK family; design: method as in MedChemExpress; conditions: ref MedChemExpress; cited from earlier work
ETB receptor = target: ETB receptor; design: method as in MedChemExpress; conditions: inhibition of ET-1 binding to human Girardi heart cells (ETB); ref MedChemExpress; cited from earlier work
ETA receptors = target: ETA receptors; design: method as in MedChemExpress; conditions: binding to ETA receptors in SK-N-MC cells; ref MedChemExpress; cited from earlier work
rat brain PKC = system: rat brain PKC; design: method as in MedChemExpress; conditions: ref MedChemExpress; cited from earlier work
PKC-γ = system: PKC-γ; design: method as in MedChemExpress; conditions: ref MedChemExpress; cited from earlier work
PKC-α = system: PKC-α; design: method as in MedChemExpress; conditions: ref MedChemExpress; cited from earlier work
PKC-ε = system: PKC-ε; design: method as in MedChemExpress; conditions: ref MedChemExpress; cited from earlier work
PKC-βII = system: PKC-βII; design: method as in MedChemExpress; conditions: ref MedChemExpress; cited from earlier work
PKC-βI = system: PKC-βI; design: method as in MedChemExpress; conditions: ref MedChemExpress; cited from earlier work
Pim-2 = system: Pim-2; design: method as in MedChemExpress; conditions: ref MedChemExpress; cited from earlier work
Pim-1 = system: Pim-1; design: method as in MedChemExpress; conditions: ref MedChemExpress; cited from earlier work
[2] = DMSO; ref MedChemExpress; cited from earlier work
FLT3 wild type = system: FLT3 wild type; design: method as in MedChemExpress; conditions: ref MedChemExpress; cited from earlier work
FLT3-D835Y = system: FLT3-D835Y; design: method as in MedChemExpress; conditions: ref MedChemExpress; cited from earlier work
CDK7 = target: CDK7; design: method as in MedChemExpress; conditions: ref MedChemExpress; cited from earlier work
T-type Ca2+ channels = system: T-type Ca2+ channels; design: method as in MedChemExpress; conditions: T-type currents; ref MedChemExpress; cited from earlier work
L-type currents = system: L-type currents; design: method as in MedChemExpress; conditions: ref MedChemExpress; cited from earlier work
[3] = DMSO; ref MedChemExpress; cited from earlier work; remark: listed apart in the source
PI3Kα = system: PI3Kα; design: method as in MedChemExpress; conditions: ref MedChemExpress; cited from earlier work
Syk = system: Syk; design: method as in MedChemExpress; conditions: ref MedChemExpress; cited from earlier work
HIV-1KM018 = system: HIV-1KM018; design: method as in MedChemExpress; conditions: ref MedChemExpress; cited from earlier work
HIV-1(74V) = system: HIV-1(74V); design: method as in MedChemExpress; conditions: ref MedChemExpress; cited from earlier work
HIV-1IIIB = system: HIV-1IIIB; design: method as in MedChemExpress; conditions: ref MedChemExpress; cited from earlier work
SirT2 = system: SirT2; design: method as in MedChemExpress; conditions: ref MedChemExpress; cited from earlier work
SirT5 = system: SirT5; design: method as in MedChemExpress; conditions: ref MedChemExpress; cited from earlier work
DNA topoisomerase II = target: DNA topoisomerase II; design: method as in MedChemExpress; conditions: ref MedChemExpress; cited from earlier work
Lck = system: Lck; design: method as in MedChemExpress; conditions: ref MedChemExpress; cited from earlier work
Fgr = system: Fgr; design: method as in MedChemExpress; conditions: ref MedChemExpress; cited from earlier work
Hck = system: Hck; design: method as in MedChemExpress; conditions: ref MedChemExpress; cited from earlier work
Yes = system: Yes; design: method as in MedChemExpress; conditions: ref MedChemExpress; cited from earlier work
VEGFR2 = system: VEGFR2; design: method as in MedChemExpress; conditions: ref MedChemExpress; cited from earlier work
FGFR1 = system: FGFR1; design: method as in MedChemExpress; conditions: ref MedChemExpress; cited from earlier work
PDGFRβ = system: PDGFRβ; design: method as in MedChemExpress; conditions: ref MedChemExpress; cited from earlier work
VEGFR1 = system: VEGFR1; design: method as in MedChemExpress; conditions: ref MedChemExpress; cited from earlier work
Src = system: Src; design: method as in MedChemExpress; conditions: ref MedChemExpress; cited from earlier work
Fyn = system: Fyn; design: method as in MedChemExpress; conditions: ref MedChemExpress; cited from earlier work
FGFR2 = system: FGFR2; design: method as in MedChemExpress; conditions: ref MedChemExpress; cited from earlier work
Lyn = system: Lyn; design: method as in MedChemExpress; conditions: ref MedChemExpress; cited from earlier work
BRD4 BD1 = system: BRD4 BD1; design: method as in MedChemExpress; conditions: ref MedChemExpress; cited from earlier work
BRD4 BD2 = system: BRD4 BD2; design: method as in MedChemExpress; conditions: ref MedChemExpress; cited from earlier work
[4] = difference of raw data without and with enzyme
[5] = difference of raw data w/o and w enzyme

T1 sequence (Q8N999 whole entry): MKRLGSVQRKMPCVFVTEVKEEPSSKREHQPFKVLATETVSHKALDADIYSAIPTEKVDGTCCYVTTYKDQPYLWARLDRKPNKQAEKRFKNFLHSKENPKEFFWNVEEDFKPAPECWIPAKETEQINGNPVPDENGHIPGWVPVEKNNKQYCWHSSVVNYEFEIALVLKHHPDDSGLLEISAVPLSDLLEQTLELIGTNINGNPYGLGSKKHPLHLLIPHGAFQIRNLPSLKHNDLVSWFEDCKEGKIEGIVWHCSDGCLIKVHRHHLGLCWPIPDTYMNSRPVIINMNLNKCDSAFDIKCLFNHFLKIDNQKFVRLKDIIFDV

## COc1ccc2[nH]c(O)c(C=c3ccc4c(c3)N=NC=4/C=C/c3ccc(N4CCN(C)CC4)nc3)c2c1.Cl.Cl [(1E)-CFI-400437 (dihydrochloride)]
FLT-3
  IC50: 180 nM
Aurora A
  IC50: 370 nM
KDR
  IC50: 480 nM
Rlig1-AMP; MedChemExpress library
  1-D Distance.npi: 102.026
Rlig1-AMP; [4]
  1-D Distance: 187
Rlig1-AMP
  Raw data [w Enyzm]: 4069
  Raw data [w/o Enzym]: 3882
Aurora B
  IC50: 210 nM
[1]
  IC50: > 10000 nM

## CCCC[C@@H](NC(=O)[C@@H](Cc1cn(C(=O)OC)c2ccccc12)NC(=O)[C@H](CC(C)(C)C)NC(=O)N1[C@H](C)CCC[C@@H]1C)C(=O)[O-].[Na+] [BQ-788]
ETB receptor
  IC50: 1.2 nM
Rlig1-AMP; MedChemExpress library
  1-D Distance.npi: 75.2571
Rlig1-AMP; [4]
  1-D Distance: 1704
Rlig1-AMP
  Raw data [w Enyzm]: 8619
  Raw data [w/o Enzym]: 10323
ETA receptors
  IC50: 1300 nM

## CC(=O)O.Cn1cc(C2=C(c3cn(CCCN)c4ccccc34)C(=O)NC2=O)c2ccccc21 [Bisindolylmaleimide VIII (acetate)]
Rat brain PKC
  IC50: 158 nM
PKC-γ
  IC50: 213 nM
Rlig1-AMP; MedChemExpress library
  1-D Distance.npi: 70.0569
Rlig1-AMP; [4]
  1-D Distance: 1909
Rlig1-AMP
  Raw data [w Enyzm]: 2831
  Raw data [w/o Enzym]: 4740
PKC-α
  IC50: 53 nM
PKC-ε
  IC50: 175 nM
PKC-βII
  IC50: 163 nM
PKC-βI
  IC50: 195 nM

## CN1CCCN(C(=O)c2cccc(-c3ccc(/C=C4/C(=O)Nc5ccc(Cl)cc54)o3)c2)CC1 [CX-6258]
Pim-2
  IC50: 25 nM
Pim-1
  IC50: […]
[2]
  solubility: […]
Rlig1-AMP; [5]
  1-D Distance: 641
Rlig1-AMP; normalized value (npi)
  1-D Distance.npi: 93.2533
Rlig1-AMP
  Raw data [w Enyzm]: 5174
  Raw data [w/o Enzym]: 5815

## CN1CCC(Nc2nc(Nc3ccc(Oc4ccccc4)cc3)c3c(=O)[nH]cc(Br)c3n2)CC1 [G-749]
FLT3 wild type
  IC50: 0.4 nM
Rlig1-AMP; [5]
  1-D Distance: 603
Rlig1-AMP; normalized value (npi)
  1-D Distance.npi: 93.9141
Rlig1-AMP
  Raw data [w Enyzm]: 7489
  Raw data [w/o Enzym]: 8092
FLT3-D835Y
  IC50: 0.6 nM

## CN(C)C/C=C/C(=O)Nc1ccc(C(=O)N[C@@]2(C)CCC[C@@H](Nc3ncc(Cl)c(-c4c[nH]c5ccccc45)n3)C2)nc1 [Mevociclib]
Rlig1-AMP; MedChemExpress library
  1-D Distance.npi: 95.3899
Rlig1-AMP; [4]
  1-D Distance: 561
Rlig1-AMP
  Raw data [w Enyzm]: 5749
  Raw data [w/o Enzym]: 5188
CDK7
  Ki: 17.4 nM

## COCC(=O)O[C@]1(CCN(C)CCCc2nc3ccccc3[nH]2)CCc2cc(F)ccc2[C@@H]1C(C)C.Cl.Cl [Mibefradil (dihydrochloride)]
T-type Ca2+ channels
  IC50: 2700 nM
L-type currents
  IC50: 18600 nM
Rlig1-AMP; MedChemExpress library
  1-D Distance.npi: 70.2795
Rlig1-AMP; [4]
  1-D Distance: 1786
Rlig1-AMP
  Raw data [w Enyzm]: 9508
  Raw data [w/o Enzym]: 11294

## Cc1nn(-c2ccnc(Nc3ccc(-c4csc5c(=O)cc(N6CCOCC6)oc45)cc3)n2)cc1CN1CCC1 [SRX3207]
[3]
  solubility: 5 mg/mL and 9.00 mM
Rlig1-AMP; MedChemExpress library
  1-D Distance.npi: 89.3143
Rlig1-AMP; [4]
  1-D Distance: 966
Rlig1-AMP
  Raw data [w Enyzm]: 7329
  Raw data [w/o Enzym]: 6363
PI3Kα
  IC50: 861 nM
Syk
  IC50: 10.7 nM

## O=C(O)[C@H]1O[C@@H](Oc2cc3oc(-c4ccc(O)cc4)cc(=O)c3c(O)c2O)[C@H](O)[C@@H](O)[C@@H]1O [Scutellarin]
[3]
  solubility: 100 mg/mL and 216.28 mM
HIV-1KM018
  EC50: 136000 nM
Rlig1-AMP; [4]
  1-D Distance: 1804
Rlig1-AMP
  Raw data [w Enyzm]: 9318
  Raw data [w/o Enzym]: 11122
HIV-1(74V)
  EC50: 253000 nM
HIV-1IIIB
  EC50: 26000 nM

## Cc1ccc(C(=O)Nc2ccc(S(=O)(=O)[O-])c3cc(S(=O)(=O)[O-])cc(S(=O)(=O)[O-])c23)cc1NC(=O)c1cccc(NC(=O)Nc2cccc(C(=O)Nc3cc(C(=O)Nc4ccc(S(=O)(=O)[O-])c5cc(S(=O)(=O)[O-])cc(S(=O)(=O)[O-])c45)ccc3C)c2)c1.[Na+].[Na+].[Na+].[Na+].[Na+].[Na+] [Suramin (sodium salt)]
SirT2
  IC50: 1150 nM
SirT5
  IC50: 22000 nM
DNA topoisomerase II
  IC50: 5000 nM
Rlig1-AMP; MedChemExpress library
  1-D Distance.npi: 85.8095
Rlig1-AMP; [4]
  1-D Distance: 1150
Rlig1-AMP
  Raw data [w Enyzm]: 13348
  Raw data [w/o Enzym]: 14498

## Cc1cc(-c2cc(O)ccc2Cl)cc2nnc(Nc3ccc(OCCN4CCCC4)cc3)nc12.Cl [TG 100572 (Hydrochloride)]
Lck
  IC50: 0.1 nM
[3]
  solubility: 25 mg/mL and 48.79 mM
Fgr
  IC50: 5 nM
Hck
  IC50: 6 nM
Yes
  IC50: 0.2 nM
VEGFR2
  IC50: 7 nM
FGFR1
  IC50: 2 nM
PDGFRβ
  IC50: 13 nM
VEGFR1
  IC50: 2 nM
Src
  IC50: 1 nM
Rlig1-AMP; MedChemExpress library
  1-D Distance.npi: 103.738
Rlig1-AMP; [4]
  1-D Distance: 38
Rlig1-AMP
  Raw data [w Enyzm]: 3376
  Raw data [w/o Enzym]: 3338
Fyn
  IC50: 0.5 nM
FGFR2
  IC50: 16 nM
Lyn
  IC50: 0.4 nM

## Cc1cc(N=Nc2ccc3c(c2)CCC(=O)N3)c(N)cc1O [ZL0420]
BRD4 BD1
  IC50: 27 nM
BRD4 BD2
  IC50: 32 nM
Rlig1-AMP; [5]
  1-D Distance: 1352
Rlig1-AMP; normalized value (npi)
  1-D Distance.npi: 80.8903
Rlig1-AMP
  Raw data [w Enyzm]: 1680
  Raw data [w/o Enzym]: 3032
